Values joined by “and” are separate entries in the source; they are usually repeats but may differ in a detail not shown here. Equal entries are not always repeated. Where two headings read alike, the source gives them in different places. Peptide text beside a SMILES is read from it.

One assay has as its target T1, recombinant gp120 (Human immunodeficiency virus type 1 group M subtype B, UniProt P03375).
T1 construct: recombinant proteins p24, gp120 (gifts from the AIDS program, NCIB); AIDS program, NCIB (gift)
Nature of the assay: dialysis-based binding assay with 14C-GPG-NH2. The procedure:
To determine whether the peptide agents listed in Table 1 bound to the viral capsid protein p24, an in vitro binding assay was performed. As described previously, a dialysis-based binding assay was conducted using a dialysis membrane with a pore size of less than 10 kD. (Slide-A-Lyzer, Pierce). […] Subsequently, ten or five microliter aliquots of the dialyzed p24, gp 120, and BSA were removed and mixed with 3 ml of ReadySafe (Beckman) in a scintillation vial. The C^14 was then detected by scintillation counting.

Another assay concerns SIV. The assay is described as follows: viral infection assay in H9 cells, reverse transcriptase (RT) activity in supernatant. The class given is cell-based. Conditions: summary of the experiments in H9 cells. The procedure:
(§1) Next, the ability of peptide agents to inhibit viral infection was evaluated. Accordingly, the peptide agents listed in Table 1 were used in several viral (e.g., HIV-1, HIV-2, and SIV) infection assays. […] Once inhibitory tripeptides were identified, more specific assays were conducted to determine the effect of varying concentrations of the selected tripeptides and combination treatments (e.g., the use of more than one modified tripeptide in combination).
(§2) To monitor the replication of virus, reverse transcriptase (RT) activity in the supernatants was assayed using a commercially available Lenti-RT activity kit. (Cavidi Tech, Uppsala, Sweden). The amount of RT was determined with the aid of a regression line of standards. […] Syncytium formation was also monitored by microscopic examination.
(§3) (Cavidi Tech). The amount of RT was determined with the aid of a regression line of standards.

The next assay deals with HIV-2. The description is as above. Conditions: summary of the experiments in H9 cells. The class given is cell-based. How it is done: as §1, §2, §3
The target in another assay is T2, BSA (Bos taurus, UniProt P02769).
T2 construct: purchased Sigma
The assay is described as follows: dialysis-based binding assay with 14C-GPG-NH2. How it is done:
(§4) To determine whether the peptide agents listed in Table 1 bound to the viral capsid protein p24, an in vitro binding assay was performed. As described previously, a dialysis-based binding assay was conducted using a dialysis membrane with a pore size of less than 10 kD. (Slide-A-Lyzer, Pierce). Fifty microliters of a 10 μM stock of the recombinant proteins p24, gp120 (gifts from the AIDS program, NCIB) and BSA (Sigma) were introduced into separate dialysis membranes and the proteins were dialyzed at 4° C. for 2 days against a 500 ml solution composed of 150 mM NaCl and 50 mM Tris-HCl, pH 7.4 buffer, and 27.5 μM of ^14C-GPG-NH2 (Amersham Ltd. UK). Subsequently, ten or five microliter aliquots of the dialyzed p24, gp 120, and BSA were removed and mixed with 3 ml of ReadySafe (Beckman) in a scintillation vial. The C^14 was then detected by scintillation counting.
(§5) In Table 2, the results from a representative dialysis-based binding assay are provided. […] The amount of radioactive GPG-NH2 associated with p24 was 7.5 times greater than that present in the buffer.

The test system of a further assay is HIV-1 SF-2 virus. Nature of the assay: electron microscopy of HIV-1 particles from infected HUT78 cells. It is filed as cell-based. Conditions: cells fixed day 14. The procedure: Evidence that peptide agents inhibit or prevent viral capsid protein polymerization and, thus, proper nucleocapsid assembly was obtained by performing electron microscopy on HIV-1 particles that were contacted with a modified small peptide. In this set of experiments, HUT78 cells were infected with HIV-1 SF-2 virus at 300TCID50 for 1 hr at 37° C. Subsequently, the infected cells were washed and pelleted 3 times. […] GPG-NH2 was then added into the cell cultures 3, 5 or 7 days post infection at concentration of 1 μm or 10 μM. A control sample was administered 0.5 μM Ritonavir (a protease inhibitor). The cells were cultured until day 14, at which point, the cells were fixed in 2.5% glutaraldehyde by conventional means. The fixed cells were then post-fixed in 1% OSO4 and were dehydrated, embedded with epoxy resins, and the blocks were allowed to polymerize. Epon sections of virus infected cells were made approximately 60-80 nm thin in order to accommodate the width of the nucleocapsid. The sections were mounted to grids stained with 1.0% uranyl acetate and were analyzed in a Zeiss CEM 902 microscope at an accelerating voltage of 80 kV. The microscope was equipped with a spectrometer to improve image quality and a liquid nitrogen cooling trap was used to reduce beam damage. The grids having sections of control and GPG-NH2 incubated cells were examined in several blind studies.
(See FIG. 1). […]

In assay [1] the test system is HIV-1. Conditions: summary of Experiments 1-6. How it is done: as §1
The target in assay [2] is T3, recombinant p24 (viral capsid protein) (Human immunodeficiency virus type 1 group M subtype B, UniProt P04591).
T3 construct: AIDS program, NCIB (gift)
The assay is described as follows: dialysis-based binding assay with 14C-GPG-NH2. Further details: species or system HIV-1. How it is done:
as §4, §5

The test system of assay [3] is HIV-1. Conditions: 100 μM; Experiment 6.
Procedure: The HUT cells were resuspended in 1 ml of RPMI 1640 medium supplemented with 10% (v/v) heat-inactivated fetal bovine serum (FBS, GIBCO), penicillin (100 u/ml), streptomycin (100 u/ml) and Polybrene (Sigma, 2 μg/ml) with or without the presence of the different small peptides (100 μM) mentioned above. Thereafter, the HIV-1 virus was added at 25 TCID50 in a volume of 20 μl. Cells were incubated with the virus at 37° C. for one hour and, subsequently, the cells were pelleted at 170× g for seven minutes. The cells were then washed three times in RPMI medium without peptides at room temperature by cell sedimentation at 170× g for seven minutes, as above. After the final wash, the cells were resuspended in RPMI culture medium in 24-well plate (Costar corporation) and were kept at 37° C. in 5% CO2 with humidity. Culture supernatants were collected when medium was changed at day 4, 7, and 11 post infection and viral p24 production was monitored by using an HIV-1 p24 ELISA kit (Abbott Laboratories, North Chicago, USA).
Assay [4] concerns the target viral capsid protein (p24) of SIV (SIV).
Assay [5] addresses major capsid protein (p24) of HIV-1 (HIV-1) (UniProt P04591).
Assay [6] concerns the target viral capsid protein (p24) of HIV-2 (HIV-2).
In assay [7] the target is major capsid protein (p24) of HIV-1 (HIV-1) (UniProt P04591). The source holds these as a separate data set.
In assay [8] the target is viral capsid protein (p24) of SIV (SIV). The source holds these as a separate data set.
The target of assay [9] is major capsid protein (p24) of HIV-1 (HIV-1) (UniProt P04591). This is another data set of the same source.
Assay [10] addresses viral capsid protein (p24) of HIV-2 (HIV-2). This is another data set of the same source.
The target of assay [11] is major capsid protein (p24) of HIV-1 (HIV-1) (UniProt P04591). This is another data set of the same source.
Where [12] appears, read: 27.5 μM 14C-GPG-NH2, dialysis 4° C. 2 days, dialysis buffer 1.816.
Setting [13] is: radioactivity relative to dialysis buffer.

Consider `NCC(=O)N1CCC[C@H]1C(=O)NCC(N)=O` [GPG-NH2, glycyl-prolyl-glycine amide] (H-Gly-Pro-Gly-NH2), for which the “μCi/ml, sample gp120” value on recombinant gp120 (setting [12]) was 1.745 μCi/ml. The “radioactive GPG-NH2 associated with gp120 over the amount in the dialysis buffer” value at recombinant gp120 (in words) was “no appreciable amount”. Moreover, the “times buffer, sample gp120” value on recombinant gp120 (setting [13]) came to 0.961 times buffer. Further, the “effect on SIV infection, in words” value in the assay with SIV was “inhibit or prevent HIV-2 and SIV infection”. Further, the “effect on HIV-2 infection, in words” value in the assay with HIV-2 is “inhibit or prevent HIV-2 and SIV infection”. Also, the “μCi/ml, sample BSA” value at BSA (setting [12]) is 1.674 μCi/ml. Moreover, the “radioactive GPG-NH2 associated with BSA over the amount in the dialysis buffer” value on BSA (in words) is listed as “no appreciable amount”. The “times buffer, sample BSA” value on BSA (setting [13]) is on record as 0.922 times buffer. Moreover, the “capsid/nucleocapsid morphology of HIV-1 particles” value with HIV-1 SF-2 virus (1 μM or 10 μM added 3, 5 or 7 days post infection) is reported as “discernable capsid structures that are distinct from the Ritonavir-treated particles”. For the same compound, the “effect on HIV-1 infection, in words” value in the assay with HIV-1 [1] is “inhibited and/or prevented HIV-1 infection”. The “μCi/ml, sample p24” value in [2] (setting [12]) was 13.712 μCi/ml. In addition, the “times buffer, sample p24” value in assay [2] (setting [13]) is 7.5 times buffer and 7.551 times buffer.
Turning to `CC(C)c1nc(CN(C)C(=O)N[C@H](C(=O)N[C@@H](Cc2ccccc2)C[C@H](O)[C@H](Cc2ccccc2)NC(=O)OCc2cncs2)C(C)C)cs1` [Ritonavir, reference compound], in the assay on HIV-1 SF-2 virus (0.5 μM control sample), the “capsid/nucleocapsid morphology of HIV-1 particles” value is given as “malformed structures that did not have a discernable nucleocapsid”.
For `CC(C)[C@H](N)C(=O)NCC(=O)NCC(N)=O` [VGG-NH2, valyl-glycyl-glycine amide] (H-Val-Gly-Gly-NH2), in the assay on HIV-1 [1], the “effect on HIV-1 infection, in words” value is recorded as “inhibited and/or prevented HIV-1 infection”. Also, the “inhibiting or preventing HIV-1 infection, in words” value in the assay on HIV-1 [3] is “less effective”.
Turning to GKG-NH2 + CQG-NH2 (pool or library), the reverse transcriptase (RT) activity in the supernatants, Day 10 RT (OD) in [4] was found to be 2.89 OD; in assay [5] it was 1.89 OD; in assay [6] it was 2.8 OD.
Regarding GPG-NH2 + CQG-NH2 (pool or library), the reverse transcriptase (RT) activity in the supernatants, Day 10 RT (OD) in assay [4] amounted to 0.91 OD; in assay [5] it was 0.397 OD; in assay [6], 1.17 OD.
With GPG-NH2 + GKG-NH2 (pool or library), the results for the reverse transcriptase (RT) activity in the supernatants, Day 10 RT (OD) in assay [4], in [5] and in assay [6] were 0.309 OD, 0.164 OD and 1.11 OD, respectively.
“GPG-NH2 + GKG-NH2 + CQG-NH2 (pool or library)” gave a p24 in the supernatants of infected H9 cells, Day 14 HIV-1, reduction (%) in assay [7] of 100%.
Turning to Gly-Pro-Gly-NH2 (peptide), the reverse transcriptase (RT) activity in the supernatants, Day 10 RT (OD) in assay [8] is 0.103 OD; in assay [9], 0.074 OD; in [10], 0.145 OD. Also, in [11], the p24 production of infected HUT78 cells (HIV-1 p24 ELISA), Day 7 HIV-1, reduction (%), peptide at 100 µM was found to be 97%.

The values are drawn from US20030050242A1, “Protein polymerization inhibitors and methods of use” (priority 1999, published 2003).
